Measured values published in PMC9732521, “Molecular mechanism of GylR-mediated regulation of glycerol metabolism in Streptomyces clavuligerus NRRL 3585” (Frontiers in Microbiology, 2022).

Columns and labels:
[1] = molecular target: GylR (IclR family transcriptional regulator) of Streptomyces clavuligerus NRRL 3585, C-terminal His6-tagged (Streptomyces clavuligerus NRRL 3585); assay: SEC; TSKgel G3000 SWxl column (7.8 x 300 mm) on HPLC, 0.1 M Na2SO4 (pH 6.7), 0.5 ml/min; bovine serum albumin, ovalbumin and AlpJ as molecular weight standards
GylR = molecular target: T1, GylR (Streptomyces clavuligerus, UniProt E2PWC0); assay: EMSA, dissociation of GylR from DNA probe BS2; format: binding; conditions: effector (inducer), 50 mM HEPES pH 7.5, 5 mM MgCl2, 25 °C
T1 construct: gene SCLAV_0876; coding region of gylR in pET-30a (NdeI/XhoI), C-terminal His6 tag, E. coli Rosetta (DE3), Ni-NTA; dimer by SEC
T1 sequence (E2PWC0 entry or part of it): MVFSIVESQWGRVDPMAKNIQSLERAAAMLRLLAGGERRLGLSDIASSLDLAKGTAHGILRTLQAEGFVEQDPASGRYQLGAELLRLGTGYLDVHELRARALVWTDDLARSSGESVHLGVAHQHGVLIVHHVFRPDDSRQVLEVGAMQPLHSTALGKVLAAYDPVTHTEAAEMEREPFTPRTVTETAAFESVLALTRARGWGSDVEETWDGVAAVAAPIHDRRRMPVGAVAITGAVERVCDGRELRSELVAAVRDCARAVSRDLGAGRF

stoichiometry N [1]	Molecule	EMSA, dissociation of GylR from DNA probe BS2 (GylR)
2	GylR (IclR family transcriptional regulator) of Streptomyces clavuligerus NRRL 3585, C-terminal His6-tagged (natural protein)	–
–	O=C(CO)COP(=O)(O)O [DHAP, dihydroxyacetone phosphate]	both G3P and DHAP were capable of inducing the dissociation of GylR from BS2
–	O=P(O)(O)OC[C@H](O)CO [G3P, glycerol-3-phosphate]	both G3P and DHAP were capable of inducing the dissociation of GylR from BS2
